Data: patent USRE48335E1, “Polymyxin derivatives as antimicrobial compounds” (priority 2014, dated 2020)
≈ marks a conversion by molar mass, not a printed value. Positions of bridges follow the written chain, without caps; N, C: chain ends. Non-standard residues stand in square brackets, D forms with d. Residues, ends and D or L forms follow the SMILES beside them. *: point of attachment. dNle = CCCC[C@@H](N)C(=O)O; Nonanoyl = CCCCCCCCC(=O)*; Octanoyl = CCCCCCCC(=O)*; Dab = NCC[C@H](N)C(=O)O; Abu = CC[C@H](N)C(=O)O; Dap = NC[C@H](N)C(=O)O

Key:
[1] = test system: Acinetobacter baumannii
How it was run: (§1)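 Read-out is the MIC, obtained by broth microdilution under CLSI guidance. Lipopeptides (TFA salt form) were diluted in cation-adjusted Mueller-Hinton broth, with polymyxin B sulphate run alongside as control.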

[2] = test system: Pseudomonas aeruginosa
How it was run: as §1

[3] = test system: Enterobacter cloacae
How it was run: as §1

[4] = test system: Klebsiella pneumoniae
How it was run: as §1

[5] = test system: P. aeruginosa ATCC 27853; assay: In vivo efficacy in mouse blood infection model (neutropenic Swiss mice); conditions: compound, free base 4 mg/kg intravenously 2 h after inoculation, blood at 4 h
How it was run: (§2)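 Neutropenic Swiss mice (cyclophosphamide 150 mg/kg day −4, 100 mg/kg day −1, i.p.) infected i.v. with early log-phase bacteria; 4 mg/kg free base i.v. given 2 h post-inoculation. Blood CFU by cardiac puncture 4 h post-dose; Δlog10 CFU/mL treated versus saline controls.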

[6] = test system: A. baumannii ATCC 19606; assay: as above; conditions: compound, free base 4 mg/kg intravenously 2 h after inoculation, blood at 4 h
How it was run: as §2

[7] = test system: K. pneumoniae FADDI-KP032; assay: as above; conditions: compound, free base 4 mg/kg intravenously 2 h after inoculation, blood at 4 h
How it was run: as §2

| Compound | MIC [1] | Minimum inhibitory concentration, Ab A ATCC 17978 [1] | Minimum inhibitory concentration, Ab ATCC 19606 [1] | Minimum inhibitory concentration, Ab FADDI-AB034 [1] | MIC [2] | Minimum inhibitory concentration, Pa ATCC 27853 [2] | Minimum inhibitory concentration, Pa FADDI-PA022 [2] | Minimum inhibitory concentration, Pa FADDI-PA025 [2] | Minimum inhibitory concentration, Ec FADDI-EC001 [3] | Minimum inhibitory concentration, Ec FADDI-EC003 [3] | Minimum inhibitory concentration, Ec FADDI-EC006 [3] | MIC [4] | Δ log (Treated-Control at 4 h) [5] | Δ log (Treated-Control at 4 h) [6] | Δ log (Treated-Control at 4 h) [7] |
| --- | --- | --- | --- | --- | --- | --- | --- | --- | --- | --- | --- | --- | --- | --- | --- |
| CCCCCCCC(=O)N[C@@H](CCN)C(=O)N[C@H](C(=O)N[C@@H](CCN)C(=O)N[C@H]1CCNC(=O)[C@H]([C@@H](C)O)NC(=O)[C@H](CCN)NC(=O)[C@H](CCN)NC(=O)[C@H]([C@@H](C)O)NC(=O)[C@@H](CC(C)C)NC(=O)[C@H](CCN)NC1=O)[C@@H](C)O [Compound 20] (Octanoyl-[Dab]T[Dab][Dab][Dab][dL]T[Dab][Dab]T; lactam 4-C) | 4 µg/mL (≈ 3.5 µM) | 4 µg/mL (≈ 3.5 µM) | 4 µg/mL (≈ 3.5 µM) | 2 µg/mL (≈ 1.75 µM) | 0.5 µg/mL (≈ 0.437 µM) | 0.5 µg/mL (≈ 0.437 µM) | 0.5 µg/mL (≈ 0.437 µM) | >32 µg/mL | <0.125 µg/mL | 0.5 µg/mL (≈ 0.437 µM) | <0.125 µg/mL | 0.25 µg/mL (≈ 0.219 µM) | −2.13 log10 CFU/mL | −1.86 log10 CFU/mL | −3.50 log10 CFU/mL |
| CCCCCCCC(=O)N[C@@H](CCN)C(=O)N[C@H](C(=O)N[C@@H](CCN)C(=O)N[C@H]1CCNC(=O)[C@H]([C@@H](C)O)NC(=O)[C@H](CCN)NC(=O)[C@H](CCN)NC(=O)[C@H]([C@@H](C)O)NC(=O)[C@@H](Cc2ccccc2)NC(=O)[C@H](CCN)NC1=O)[C@@H](C)O [Compound 22] (Octanoyl-[Dab]T[Dab][Dab][Dab][dF]T[Dab][Dab]T; lactam 4-C) | 1 µg/mL (≈ 0.849 µM) | 1 µg/mL (≈ 0.849 µM) | 1 µg/mL (≈ 0.849 µM) | 0.5 µg/mL (≈ 0.425 µM) | 1 µg/mL (≈ 0.849 µM) | 1 µg/mL (≈ 0.849 µM) | 1 µg/mL (≈ 0.849 µM) | 16 µg/mL (≈ 13.6 µM) | <0.125 µg/mL | <0.125 µg/mL | 0.25 µg/mL (≈ 0.212 µM) | 0.5 µg/mL (≈ 0.425 µM) | −3.10 log10 CFU/mL | −1.50 log10 CFU/mL | −3.11 log10 CFU/mL |
| CCCCCCCC(=O)N[C@@H](CCN)C(=O)N[C@H](C(=O)N[C@@H](CCN)C(=O)N[C@H]1CCNC(=O)[C@H]([C@@H](C)O)NC(=O)[C@H](CCN)NC(=O)[C@H](CCN)NC(=O)[C@H](C(C)C)NC(=O)[C@@H](CC(C)C)NC(=O)[C@H](CCN)NC1=O)[C@@H](C)O [Compound 23] (Octanoyl-[Dab]T[Dab][Dab][Dab][dL]V[Dab][Dab]T; lactam 4-C) | 0.5 µg/mL (≈ 0.438 µM) | 0.5 µg/mL (≈ 0.438 µM) | 0.5 µg/mL (≈ 0.438 µM) | 0.25 µg/mL (≈ 0.219 µM) | 1 µg/mL (≈ 0.876 µM) | 1 µg/mL (≈ 0.876 µM) | 1 µg/mL (≈ 0.876 µM) | 4 µg/mL (≈ 3.5 µM) | <0.125 µg/mL | <0.125 µg/mL | 0.25 µg/mL (≈ 0.219 µM) | <0.125 µg/mL | −2.48 log10 CFU/mL | −2.82 log10 CFU/mL | −3.88 log10 CFU/mL |
| CCCCCCCC(=O)N[C@@H](CCN)C(=O)N[C@H](C(=O)N[C@@H](CCN)C(=O)N[C@H]1CCNC(=O)[C@H]([C@@H](C)O)NC(=O)[C@H](CCN)NC(=O)[C@H](CCN)NC(=O)[C@H]([C@@H](C)O)NC(=O)[C@@H](CCCC)NC(=O)[C@H](CCN)NC1=O)[C@@H](C)O [Compound 24] (Octanoyl-[Dab]T[Dab][Dab][Dab][dNle]T[Dab][Dab]T; lactam 4-C) | 1 µg/mL (≈ 0.875 µM) | 1 µg/mL (≈ 0.875 µM) | 1 µg/mL (≈ 0.875 µM) | 1 µg/mL (≈ 0.875 µM) | 0.5 µg/mL (≈ 0.437 µM) | 0.5 µg/mL (≈ 0.437 µM) | 0.5 µg/mL (≈ 0.437 µM) | 16 µg/mL (≈ 14 µM) | <0.125 µg/mL | <0.125 µg/mL | 0.25 µg/mL (≈ 0.219 µM) | <0.125 µg/mL | −2.31 log10 CFU/mL | −2.16 log10 CFU/mL | −3.21 log10 CFU/mL |
| CCCCCCCC(=O)N[C@@H](CCN)C(=O)N[C@H](C(=O)N[C@@H](CN)C(=O)N[C@H]1CCNC(=O)[C@H]([C@@H](C)O)NC(=O)[C@H](CCN)NC(=O)[C@H](CCN)NC(=O)[C@H]([C@@H](C)O)NC(=O)[C@@H](CC(C)C)NC(=O)[C@H](CCN)NC1=O)[C@@H](C)O [Compound 33] (Octanoyl-[Dab]T[Dap][Dab][Dab][dL]T[Dab][Dab]T; lactam 4-C) | 0.5 µg/mL (≈ 0.443 µM) | 0.25 µg/mL (≈ 0.221 µM) | 0.5 µg/mL (≈ 0.443 µM) | 0.25 µg/mL (≈ 0.221 µM) | 0.5 µg/mL (≈ 0.443 µM) | 0.5 µg/mL (≈ 0.443 µM) | 0.5 µg/mL (≈ 0.443 µM) | 8 µg/mL (≈ 7.08 µM) | <0.125 µg/mL | <0.125 µg/mL | 1 µg/mL (≈ 0.885 µM) | <0.125 µg/mL | −1.55 log10 CFU/mL | −1.40 log10 CFU/mL | −2.80 log10 CFU/mL |
| CCCCCCCC(=O)N[C@@H](CCN)C(=O)N[C@H](C(=O)N[C@@H](CN)C(=O)N[C@H]1CCNC(=O)[C@H]([C@@H](C)O)NC(=O)[C@H](CCN)NC(=O)[C@H](CCN)NC(=O)[C@H](C)NC(=O)[C@@H](CC(C)C)NC(=O)[C@H](CCN)NC1=O)[C@@H](C)O [Compound 35] (Octanoyl-[Dab]T[Dap][Dab][Dab][dL]A[Dab][Dab]T; lactam 4-C) | 0.5 µg/mL (≈ 0.455 µM) | 0.5 µg/mL (≈ 0.455 µM) | 0.5 µg/mL (≈ 0.455 µM) | 0.25 µg/mL (≈ 0.227 µM) | 0.5 µg/mL (≈ 0.455 µM) | 0.5 µg/mL (≈ 0.455 µM) | 0.5 µg/mL (≈ 0.455 µM) | 16 µg/mL (≈ 14.6 µM) | <0.125 µg/mL | 0.25 µg/mL (≈ 0.227 µM) | <0.125 µg/mL | <0.125 µg/mL | −3.36 log10 CFU/mL | −1.60 log10 CFU/mL | −3.12 log10 CFU/mL |
| CCCCCCCC(=O)N[C@@H](CCN)C(=O)N[C@H](C(=O)N[C@@H](CN)C(=O)N[C@H]1CCNC(=O)[C@H]([C@@H](C)O)NC(=O)[C@H](CCN)NC(=O)[C@H](CCN)NC(=O)[C@H](CC)NC(=O)[C@@H](CC(C)C)NC(=O)[C@H](CCN)NC1=O)[C@@H](C)O [Compound 46] (Octanoyl-[Dab]T[Dap][Dab][Dab][dL][Abu][Dab][Dab]T; lactam 4-C) | 0.25 µg/mL (≈ 0.225 µM) | 0.25 µg/mL (≈ 0.225 µM) | 0.25 µg/mL (≈ 0.225 µM) | 0.25 µg/mL (≈ 0.225 µM) | 0.5 µg/mL (≈ 0.449 µM) | 0.5 µg/mL (≈ 0.449 µM) | 0.5 µg/mL (≈ 0.449 µM) | 2 µg/mL (≈ 1.8 µM) | <0.125 µg/mL | 0.25 µg/mL (≈ 0.225 µM) | <0.125 µg/mL | <0.125 µg/mL | −2.53 log10 CFU/mL | −1.56 log10 CFU/mL | −2.93 log10 CFU/mL |
| CCCCCCCCC(=O)N[C@@H](CCN)C(=O)N[C@H](C(=O)N[C@@H](CN)C(=O)N[C@H]1CCNC(=O)[C@H]([C@@H](C)O)NC(=O)[C@H](CCN)NC(=O)[C@H](CCN)NC(=O)[C@H]([C@@H](C)O)NC(=O)[C@@H](CC(C)C)NC(=O)[C@H](CCN)NC1=O)[C@@H](C)O [Compound 58] (Nonanoyl-[Dab]T[Dap][Dab][Dab][dL]T[Dab][Dab]T; lactam 4-C) | 0.25 µg/mL (≈ 0.219 µM) | 0.5 µg/mL (≈ 0.437 µM) | 0.25 µg/mL (≈ 0.219 µM) | 1 µg/mL (≈ 0.875 µM) | 0.5 µg/mL (≈ 0.437 µM) | 0.5 µg/mL (≈ 0.437 µM) | 2 µg/mL (≈ 1.75 µM) | 2 µg/mL (≈ 1.75 µM) | 0.25 µg/mL (≈ 0.219 µM) | 0.25 µg/mL (≈ 0.219 µM) | 0.5 µg/mL (≈ 0.437 µM) | 0.25 µg/mL (≈ 0.219 µM) | −3.00 log10 CFU/mL | −2.15 log10 CFU/mL | −3.21 log10 CFU/mL |
